Reference: article PMC10349806 (Nature Communications, 2023)
Residue numbers refer to the chain shown, from its start. Values joined by “and” are separate entries in the source; they are usually repeats but may differ in a detail not shown here. Equal values may be shown once.

How the values were obtained:
[1] = target: T1, PfCRT variant D137N (Plasmodium falciparum, UniProt Q9N623, A220S/D137N/I356T/K76T/M74I/N326S/N75E/Q271E/R371I); test: CQ uptake assay, oocytes expressing D137N; type: cell-based
T1 sequence (Q9N623 1-424 M74I/N75E/K76T/D137N/A220S/Q271E/N326S/I356T/R371I): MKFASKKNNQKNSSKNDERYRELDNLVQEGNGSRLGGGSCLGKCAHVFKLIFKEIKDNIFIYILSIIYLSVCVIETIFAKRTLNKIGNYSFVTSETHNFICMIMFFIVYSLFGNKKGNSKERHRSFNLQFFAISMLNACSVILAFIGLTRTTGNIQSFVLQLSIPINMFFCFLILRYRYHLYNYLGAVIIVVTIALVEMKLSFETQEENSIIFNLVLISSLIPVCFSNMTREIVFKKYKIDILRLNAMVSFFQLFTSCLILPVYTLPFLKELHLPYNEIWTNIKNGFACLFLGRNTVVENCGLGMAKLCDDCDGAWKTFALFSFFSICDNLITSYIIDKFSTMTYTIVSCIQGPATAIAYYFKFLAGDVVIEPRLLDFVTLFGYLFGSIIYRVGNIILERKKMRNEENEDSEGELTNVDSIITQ
Description: (§1) Site-directed mutagenesis of PfCRT^Dd2 was performed as described using the megaprimer method with overlap extension[21],[54]. The primer pairs used are listed in Supplementary Table 6. Please note that a codon-optimized and oocyte-adapted version of PfCRT^Dd2 was used[22] (Supplementary Fig. 16). The resulting DNA fragment was cloned into the SP64T expression vector and verified by sequencing.
(§2) Oocytes were obtained as described previously. Briefly, adult (>2 years old) female X. laevis frogs (NASCO) were anesthetized in a cooled solution of ethyl 3-amino benzoate methanesulfonate (0.1%, w/v), followed by a surgical removal of parts of the ovary. The ovary lobes were carefully dissected and small pieces of oocytes were incubated in Ca^2+-free ND96 buffer (96 mM NaCl, 2 mM KCl, 1 mM MgCl2 buffered with 5 mM HEPES/NaOH, pH 7.5) supplemented with collagenase D (0.1%, w/v; Roche), BSA (0.5%, w/v), and 9 mm Na2HPO4 at 18 °C for 14-16 h while gentle shaking. After incubation, the oocytes were carefully washed several times with ND96 buffer (96 mM NaCl, 2 mM KCl, 1.8 mM CaCl2, 1 mM MgCl2 buffered with 5 mM HEPES/NaOH, pH 7.5) supplemented with 100 mg l^−1 gentamycin). Defolliculated and healthy-looking stage V-VI oocytes were manually selected for RNA microinjection. The RNA was generated as following: The codon-optimized sequences of PfCRT variants were cloned into the pSP64T expression vector. After vector linearization using the restriction endonucleases BamHI or SalI (New England Biolabs), transcription was performed using the in vitro SP6 mMessage mMachine Kit (Ambion)[34]. The obtained RNA was kept at −80 °C and diluted with nuclease-free water to a concentration of 0.6 μg μl^−1. Precision-bore glass capillary tubes (3.5-inch glass capillaries; Drummond Scientific Co.) were pulled on a vertical puller (P-87 Flaming/Brown micropipette puller, Sutter Instrument Co.), graduated, and placed on a microinjector (Nanoject II Auto-Nanoliter Injector, Drummond Scientific Co.). 50 nl of nuclease-free water alone (control oocytes) or 50 nl of 0.6 μg μl^−1 RNA were injected under stereomicroscopic control. Injected oocytes were incubated for 46–72 h at 18 °C with twice-daily buffer changes before usage in experiments.
(§3) Drug uptake assays were performed as described previously[21],[22],[24],[34]. […] The direction of radio-labeled drug transport is here from the mostly acidic extracellular solution (pH 4.5 or 6.0, as indicated) into the oocyte cytosol (pH ∼ 7.2), which corresponds to the efflux of drug from the acidic digestive vacuole (pH 5.2) into the parasite cytoplasm (pH 7.2). The topology of PfCRT in the oolemma is such that both the N- and C-terminus face the extracellular milieu[3],[22]. In the parasite, the N- and C-terminus face the lumen of the digestive vacuole. CQ uptake kinetics were performed by incubating oocytes in ND96 buffer adjusted to a pH of 4.5, 5.0, 5.5, or 6.0 and supplemented with 50 nM [^3H]CQ and one of 7 different CQ concentrations (10 µM, 50 µM, 100 µM, 200 µM, 300 µM, 400 µM, 500 µM CQ). The reaction was stopped at the 60 min time point, which is in the linear uptake range[22],[34] (Supplementary Fig. 17). For determination of the amount of drug uptake for each oocyte, the reaction medium was removed and the oocytes were washed three times with 2 ml of ice-cold ND96 buffer. Each oocyte was individually transferred to a scintillation vial containing 5% sodium dodecyl sulfate (200 μl) for lysis. The radioactivity of each sample was measured using a liquid scintillation analyzer Tri-Carb 4910 TR (PerkinElmer). Oocytes that were injected with water instead of RNA were analyzed in parallel, representing the uptake of a drug by diffusion and/or endogenous permeation pathways. The resulting value represents the “background“ level of drug accumulation in oocytes (in-depth discussion in[22]). […]

[2] = target: T2, PfCRT variant F322A (Plasmodium falciparum, UniProt Q9N623, A220S/F322A/I356T/K76T/M74I/N326S/N75E/Q271E/R371I); test: CQ uptake assay, oocytes expressing F322A; type: cell-based
T2 sequence (Q9N623 1-424 M74I/N75E/K76T/A220S/Q271E/F322A/N326S/I356T/R371I): T1 sequence (Q9N623 1-424 M74I/N75E/K76T/D137N/A220S/Q271E/N326S/I356T/R371I) with N137D, F322A
Description: as §1, §2, §3

[3] = D137N, 50 µM CQ, 1 h, mean ± SEM
[4] = pH 4.5, single replicates, Fig 1d left
[5] = pH 6.0, single replicates, Fig 1d left
[6] = F322A, 50 µM CQ, 1 h, mean ± SEM

CCN(CC)CCCC(C)Nc1ccnc2cc(Cl)ccc12 (stereo not drawn) [CQ, chloroquine]
Activity at pH 4.5 [1, 3]: 0.57 ± 0.14 pmol h-1 oocyte-1
Activity at pH 6.0 [1, 3]: 0.95 ± 0.18 pmol h-1 oocyte-1
R-value ([1]; D137N, CQ transport at pH 4.5 / pH 6.0): 0.59 ± 0.04
D137N transport activity pH 4.5 [1, 4]: 0.77 pmol oocyte-1 h-1 and 0.37 pmol oocyte-1 h-1 and 0.63 pmol oocyte-1 h-1
D137N R-value ([1]; pH 4.5 vs pH 6.0, Fig 1d left): 0.64 and 0.53 and 0.59
D137N transport activity pH 6.0 [1, 5]: 1.20 pmol oocyte-1 h-1 and 0.70 pmol oocyte-1 h-1 and 1.07 pmol oocyte-1 h-1
Activity at pH 4.5 [2, 6]: 0.72 ± 0.12 pmol h-1 oocyte-1
Activity at pH 6.0 [2, 6]: 1.05 ± 0.12 pmol h-1 oocyte-1
R-value ([2]; F322A, CQ transport at pH 4.5 / pH 6.0): 0.68 ± 0.04
F322A transport activity pH 4.5 [2, 4]: 0.55 pmol oocyte-1 h-1 and 1.12 pmol oocyte-1 h-1 and 0.61 pmol oocyte-1 h-1 and 0.60 pmol oocyte-1 h-1
F322A R-value ([2]; pH 4.5 vs pH 6.0, Fig 1d left): 0.73 and 0.78 and 0.63 and 0.59
F322A transport activity pH 6.0 [2, 5]: 0.75 pmol oocyte-1 h-1 and 1.44 pmol oocyte-1 h-1 and 0.97 pmol oocyte-1 h-1 and 1.02 pmol oocyte-1 h-1
